In the METLIN SMRT retention time set (Domingo-Almenara et al. 2019) one finds RP-LC retention time data, which are given here for 59 compounds.

This data set is described as follows: gradient 5% acetonitrile 3 min, to 50% in 2 min, to 85% in 15 min, held 3 min, 100 µL/min. To be noted: column: Zorbax Extend-C18 2.1 x 50 mm; eluents: water / acetonitrile, 0.1% formic acid. The gist of the method: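 The system's dead and dwell volumes were 40 μL and 900 μL, with a Zorbax Extend-C18 column (2.1 × 50 mm, 1.8 μm) run at 100 μL/min in water and acetonitrile containing 0.1% formic acid each. Pure standards were analyzed in mixtures of ~100 molecules by HPLC–quadrupole time-of-flight mass spectrometry in positive and negative ionization mode. Retention time was assigned from computationally picked, manually inspected adduct peaks.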
With `Cc1ccc(C(=O)N2CCC(c3nc(-c4ccccc4)no3)C2)s1` (centres undefined), the RP-LC retention time was determined as 949 s. `COc1ccc(C(=O)N2CCc3ccc(CNC(=O)NCC4CCCO4)cc32)cc1` (centres undefined) showed an RP-LC retention time of 712 s. Compound `Cc1cc(C)c(S(=O)(=O)N2CCC(c3cc(N)on3)CC2)cc1C` displayed an RP-LC retention time of 879 s.

In turn, `CC(C)(C)OC(=O)N1CCN(c2ncc(C(=O)Nc3ccccc3)c(N)n2)CC1` displayed an RP-LC retention time of 760 s. `Cc1ccc(-c2noc(Cn3ccn4nc(-c5ccc6c(c5)OCO6)cc4c3=O)n2)cc1` displayed an RP-LC retention time of 1050 s. The result for `Cc1cc(OCC(=O)NCc2ccco2)nc(-c2ccc(Cl)cc2)n1` reads 1000 s. The result for `COC(=O)C1=CN(c2ccc(F)c(Cl)c2)c2ccc(F)cc2S1(=O)=O` reads 929 s; that for `Cc1ccc(-c2noc(Cn3c(=O)n(CC(C)C)c(=O)c4ccccc43)n2)cc1`, 1240 s; that for `COc1ccc2c(c1OC)C(=O)O[C@@H]2[C@H]1c2cc3c(cc2CCN1C)OCO3`, 660 s. The result for `CCn1cc(-c2ccc(C)cc2)cc1C(=O)N1CCOCC1` reads 932 s. `Cc1ccc(C)c(-c2coc(-c3ccc(NC(=O)NCc4ccccc4)cc3)n2)c1` came in with an RP-LC retention time of 1220 s. The result for `Cc1sc(NC(=O)c2ccccc2)nc1-c1ccc2c(c1)NC(=O)CO2` reads 857 s. `Cc1ccc(NC(=O)N2CCCCC2)cc1[N+](=O)[O-]` showed an RP-LC retention time of 916 s.

`CC(=O)c1ccc(NC(=O)c2cnc(-c3ccc(F)cc3)nc2-c2ccncc2)cc1` gave an RP-LC retention time of 837 s.

Consider `COc1cc(CN(C)C2CCc3nnc(C4CCOCC4)n3CC2)cc(OC)c1` (centres undefined), for which the RP-LC retention time is 544 s.

Turning to `Cc1cc(C)c2c(SC(C)C)nc(N)nc2n1`, the RP-LC retention time amounted to 676 s. With `O=C(Nc1ccc(S(=O)(=O)N2CCCCC2c2cccnc2)cc1)c1ccccc1F` (centres undefined) the figure was 617 s; with `Cc1ccc(-c2nnc(-c3nc(NCc4ccco4)c4ccccc4n3)o2)cc1`, 995 s. With `Cc1nc2cc3c(cc2n1CC(=O)Nc1ccc(F)c(Cl)c1)OCCO3` the figure was 690 s.

The compound `Cc1cc(C)n(-c2ccnc(NCc3ccc(Br)cc3)n2)n1` showed an RP-LC retention time of 946 s. As for `CCn1cc(-c2nc(-c3ccccn3)no2)c(=O)c2cc(F)c(N3CCOCC3)cc21`, the RP-LC retention time was found to be 744 s. The result for `CCOC(=O)c1cc(C2CC2)nc2c1c(=O)n(Cc1ccc(F)cc1)c(=O)n2C` reads 1200 s. The result for `Cc1ccc(NC(=O)N2C[C@H](c3nc(-c4cccnc4)no3)[C@@H](C)C2)cc1` reads 820 s; that for `CCc1nc2cc(-c3noc(Cc4cc(OC)cc(OC)c4)n3)ccc2o1`, 1080 s; that for `COc1ccccc1-c1noc(Cn2ncn3nc(-c4cccs4)cc3c2=O)n1`, 948 s.

For `O=C1[C@H]2CN(Cc3ccccc3F)C[C@H]2C(=O)N1CCc1ccccc1`, the RP-LC retention time came to 781 s. The result for `N#Cc1cccc(-c2cn3c(n2)N(C(=O)c2ccccn2)CCC3)c1` reads 656 s; that for `O=C(CCc1nc2ccccc2n(CC(=O)Nc2ccc3c(c2)OCO3)c1=O)NCc1ccccc1`, 797 s. The result for `CC1CCN(C(=O)C2CCN(c3cc(N4CCCCC4)ncn3)CC2)CC1` reads 676 s. The result for `CC(C(=O)N1CCCc2ccccc21)n1nc(-c2ccc3c(c2)OCCO3)ccc1=O` (centres undefined) reads 871 s; that for `O=C(Cn1c(=O)n(-c2ccc(F)cc2)c2ncccc21)NCCN1CCCCC1`, 592 s.

`CCC1Oc2ccc(S(=O)(=O)N3CCC(C(=O)Nc4ccccc4Cl)CC3)cc2NC1=O` (centres undefined) registered an RP-LC retention time of 907 s. With `COc1ccc(OCc2nc3ccc(C)cc3[nH]2)cc1` the figure was 578 s; with `CCCN1CCN(c2ccc(NC(=O)C(C)(C)C)c(C(=O)O)c2)CC1`, 611 s; with `Cn1c(=O)c(N2CCN(C(=O)Cc3ccc(Br)cc3)CC2)nc2cccnc21`, 938 s. With `CCNc1nc(C)cc(N2CCN(S(=O)(=O)c3ccc(OC)c(C)c3C)CC2)n1` the figure was 764 s; with `COc1cccc(CNC(=O)N2CCN(c3cnn4c(C)nnc4c3)CC2)c1`, 658 s. The result for `Cc1[nH]c2ccccc2c1C(=O)C(=O)N1CC2CC(C1)c1cccc(=O)n1C2` (centres undefined) reads 612 s.

`CCCc1nc(-c2c(C)cc(C)nc2NC(=O)c2cc(F)cc(F)c2)no1` yielded an RP-LC retention time of 938 s.

The compound `O=C(NCCN1CCCC1)c1nnc(-c2ccc(S(=O)(=O)N3CCCC3)cc2)o1` came in with an RP-LC retention time of 602 s. The result for `O=C(NCC1COc2ccccc2O1)C(=O)Nc1cccc(Br)c1` (centres undefined) reads 1030 s; that for `COc1ccc(N2CC(c3noc(-c4ccc(OC)cc4OC)n3)CC2=O)cc1` (centres undefined), 861 s; that for `Cc1ccc(NC(=O)N2CCCC2c2nc(-c3ccc(F)cc3F)no2)c(C)c1` (centres undefined), 1050 s. The result for `CCc1onc(C)c1C1CCCN1C(=O)Cc1ccc(OC)c(OC)c1` (centres undefined) reads 718 s. The result for `CCOC(=O)CNC(=O)Nc1cccc(-c2nnc(Cc3ccc(C)cc3)o2)c1` reads 867 s; that for `CCc1cccc(NC(=O)N(C)CC2CCOCC2)c1`, 795 s. On to `Cc1cc(C)cc(NS(=O)(=O)c2cc(-c3[nH]ncc3C(=O)N3CCOCC3)oc2C)c1`, for which the RP-LC retention time amounted to 731 s.

As to `Cc1ccc(CNC(=O)C2(C)CN(S(C)(=O)=O)CC(=O)N2Cc2ccccc2Cl)cc1` (centres undefined), the RP-LC retention time stood at 901 s. The result for `Cc1noc(C)c1-c1ccc(S(=O)(=O)NC2CC2)cc1` reads 786 s; that for `CCOc1ccccc1-c1nc(-c2cn(-c3cccc(F)c3)nn2)no1`, 936 s; that for `O=C(c1ccc(Cl)cc1)N1CCC(n2c(-c3ccco3)nc3cccnc32)C1` (centres undefined), 805 s. With `O=C(COC(=O)c1ccco1)Nc1ccc2c(c1)OCO2` the figure was 688 s. With `Cc1csc(-c2cc(S(=O)(=O)N(Cc3cccs3)C3CCCC3)c(C)s2)n1` the figure was 1320 s; with `CC(=O)N1CCc2cc(-c3ccc(C(=O)NCCN4CCCCC4)cc3)ccc21`, 616 s; with `CCOC(=O)Cc1csc2nc(-c3ccccc3)nn12`, 960 s. The compound `O=c1c2cc(-c3ccc(F)cc3)nn2cnn1Cc1nc(-c2ccc(Br)cc2)no1` yielded an RP-LC retention time of 1210 s.

The compound `COc1cccc(-n2c(=O)c(C(=O)Nc3ccccc3F)c(O)c3cccnc32)c1` registered an RP-LC retention time of 1200 s. The result for `CC(C)NC(=O)c1nnc(-c2ccc(S(=O)(=O)N3CCCCC3)cc2)o1` reads 851 s; that for `O=C(NCC1CCCO1)c1cccc(Nc2c(-c3ccccc3)nc3cnccn23)c1` (centres undefined), 679 s.
